Data set [1] can be described thus: [14C] PLAG radioactivity in blood and lymph fluid. The settings on record: single oral [14C] PLAG. The class given is in vivo, rats. As for the experimental part:
Quantification of PLAG in blood and lymph fluid was performed in Mitsubishi Chemical Medicine Corporation (Japan) by radioactivity analysis. [^14C] PLAG was synthesized by the LSI Medience Corporation (Kumamoto, Japan). The specific activities were 348.9 kBq/mg. The purity of the compound was 99.7%. The pharmacokinetics of [^14C] PLAG were determined in Crl: CD (SD) rats (Charles River Laboratories Japan, Inc.). Rats received [^14C] PLAG at 100 mg/5 mL/kg (dosing radioactivity: 5 MBq/kg) via the oral route. To determine radioactivity concentration in lymph fluid, the abdominal large thoracic duct-cannulated animals were fitted with collars while under isoflurane anesthesia and were subjected to the administration at least 30 minutes after collar fitting. […] Each of the collected samples was measured for radioactivity. Blood was collected from the subclavian vein and used to determine the radioactivity. […] Radioactivity was measured by LSC (Tri-Carb 2300TR. Perkin Elmer, Inc) with the tSIE (transformed spectral index of external standard) method for the quenching correction.
Quantification of PLAG in blood and lymph fluid was performed in Mitsubishi Chemical Medicine Corporation (Japan) by radioactivity analysis. […] PLAG were determined in Crl: CD (SD) rats (Charles River Laboratories Japan, Inc.). […] PLAG at 100 mg/5 mL/kg (dosing radioactivity: 5 MBq/kg) via the oral route. […]

In data set [2] the test system is SR-A silenced cells. Nature of the data set: Phagocytosis and ROS in SR-A silenced cells. The class given is cell-based.
Data set [3] has as its system MIP-2 and IFN-β in LPS treated macrophage cells. Nature of the data set: MIP-2 and IFN-β in LPS treated macrophage cells. Type of data set: cell-based.
The subject of data set [4] is apoptotic neutrophils (differentiated HL60) co-cultured with macrophage (differentiated THP-1). Nature of the data set: Efferocytosis index and apoptotic cell clearance. The class given is cell-based, human. How it is done:
THP-1 and HL60 cells were obtained from the American Type Culture Collection (ATCC, Rockville, Md., USA). THP-1 cells were grown in RPMI1640 medium (WELGENE, Seoul, Korea) containing 10% fetal bovine serum (HyClone, Waltham, Mass., USA), 1% antibiotics (100 mg/l streptomycin, 100 U/ml penicillin), and 0.4% 2-Mercaptoethanol (Sigma Aldrich, St. Louis, Mo., USA). HL60 cells were grown in RPMI1640 medium containing 20% fetal bovine serum and 1% antibiotics (100 mg/l streptomycin, 100 U/ml penicillin). Cells were grown at 37° C. in a 5% CO2 atmosphere. To differentiate THP-1 cells into macrophage-like cells, cells were grown in medium with 1% Phorbol 12-myristate 13-acetate (PMA) (Sigma Aldrich) for 72 h. To differentiate […] cells into neutrophil-like cells, cells were grown in medium with 10% DMSO (Sigma Aldrich) for 5 days
Differentiation HL60 was stained with […] CellTracker Red CMTPX (Molecular probes, Eugene, OG, USA) for 30 minutes in PBS and lead to apoptosis by PMA treatment for 24 hours. […] Efferocytotic index was analyzed by FACS (BD bioscience, Franklin Lakes, N.J., USA). […]
Differentiation HL60 was stained with […] CellTracker Red CMTPX (Molecular probes, Eugene, OG, USA) for 30 minutes in PBS and lead to apoptosis by PMA treatment. […] Fluorescence overlay videos were recorded using ZEN program (Carl Zeiss, Thornwood, NY, USA)

For the molecule `CCCCC/C=C\C/C=C\CCCCCCCC(=O)OC(COC(C)=O)COC(=O)CCCCCCCCCCCCCCC` (racemic) [PLAG, 1-palmitoyl-2-linoleoyl-3-acetylglycerol], the “PLAG in lymphatic vessel versus blood vessel” value in data set [1] is reported as “More PLAG was detected in the lymphatic vessel than blood vessel”. For the same molecule, the “time of highest concentration” value in data set [1] (blood and lymph fluid) is 8 h. Also, the “PAMP molecules-induced intracellular ROS” value in data set [2] (SR-A silenced cells) is “does not increase”. The “enhanced phagocytosis by PLAG” value in data set [2] (knockdown of SR-A) is reported as “does not show the enhanced phagocytosis”. Moreover, the “modulation of chemokine MIP-2 in silenced cell” value in data set [3] (LPL or GPIHBP1 silenced cell) is “not capable of modulating”. Besides, in data set [3] (LPS treated macrophage cells), the “chemokine MIP-2 and cytokine IFN-β” value is given as “effectively down-regulates”. In addition, the “clearance of apoptotic neutrophils by macrophage phagocytosis observed within” value in data set [4] (PLAG 100 μg/mL, confocal) was at most 30 min. The “efferocytosis of apoptotic neutrophils (efferocytotic index)” value in data set [4] (dose-dependently) is “promotes”.

The values above are taken from patent US20220339135A1, “COMPOSITIONS AND METHODS FOR MODULATING AN INFLAMMATORY RESPONSE” (Enzychem Lifesciences Corporation, priority 2019, published 2022).
